Source: patent US11585779B2, “Biosensor and method of using the same for evaluation of antioxidant capacity” (Nanjing Agricultural University, priority 2017, dated 2023)

Test system: macrophage RAW264.7
Assay: Evaluation of antioxidant capacity with macrophage RAW264.7 biosensor (PMA stimulation, differential pulse voltammetry)
Assay type: cell-based
Conditions: 0.6% solution in absolute ethanol; 100 ng/mL PMA, 10 min; 0.1 M PBS
Experimental: The electrochemical experiments in 3) can be a differential pulse voltammetry (DPV), and the DPV conditions can be as follows: scanning range: -0.2 to 0.6 V, amplitude: 0.05 V.
The relative antioxidant capacity value in 5) can be calculated by the following equation:
[formula] where RAC is the relative antioxidant capacity value, I0 is the peak current obtained in the presence of 100 ng/mL PMA, Is is the peak current in the presence of the test sample, and I is the peak current in the absence of PMA.
immersing a third biosensor in Tyrode's buffer at 37° C. for 10 min, washing the third biosensor with PBS buffer for 3 times, connecting the third biosensor to a third electrochemical workstation, and conducting an electrochemical experiment of the third biosensor in a solution containing 1.0 mM Fe(CN)6^3−, 1.0 mM Fe(CN)6^4− or 0.1 M PBS, recording the current signal, reading the peak current and marking as I.
In the following examples, the differential pulse voltammetry is selected as the electrochemical experiment method.
Positive control: a first biosensor was immersed in Tyrode's buffer at 37° C. (preparation of Tyrode's solution: 1000 mL Tyrode's solution: NaCl 8.0 g, 10% KCl 2.0 mL (0.2 g), 10% MgSO4.7H2O 2.6 mL (0.26 g), 5% NaH2PO4.2H2O 1.3 mL (0.065 g), NaHCO3 1.0 g, 1 M CaCl2 1.8 mL (0.2 g), glucose 1.0 g), and PMA was then added to a concentration of 100 ng/mL. 10 min later, the first biosensor was washed with PBS buffer for 3 times (phosphate buffered saline) at pH=7.4, and then was connected to the electrochemical workstation. The first biosensor was electrochemically detected in a solution containing 1.0 mM Fe(CN)6^3−, and the current signal was recorded and the peak current was read as I0=84.6 μA.
Blank control: a third biosensor was immersed in Tyrode's buffer at 37° C. […] The […] was electrochemically detected in a solution containing 1.0 mM Fe(CN)6^3−, and the current signal was recorded and the peak current was read as I=21.5 μA. […]
3) Electrochemical experiment: the second biosensor was used for electrochemical experiment in a PBS solution containing 1.0 mM Fe(CN)6^3−. Subsequently, the current signal and the peak current ls1 were recorded and read, respectively. […]
3) Electrochemical experiment: the biosensor IV was used for electrochemical experiment in a solution containing 1.0 mM Fe(CN)6^4−. Subsequently, the current signal was recorded and the peak current Is2 was read, where Is2=24.7 μA. […]
3) Electrochemical experiment: the biosensor was used for electrochemical experiment in a solution containing 0.1 M (mol/L) PBS. Subsequently, the current signal was recorded and the peak current Is3 was read, where Is3=26.5 μA. […]

| Structure (SMILES) | peak current Is3 | relative antioxidant value (RAC3) | relative antioxidant value (RAC4) | peak current Is4 |
| --- | --- | --- | --- | --- |
| Cc1c(C)c2c(c(C)c1O)CC[C@@](C)(CCC[C@H](C)CCC[C@H](C)CCCC(C)C)O2 [VE, Vitamin E] | 26.5 μA | 92.2% | 94.2% | – |
| O=C1O[C@H]([C@@H](O)CO)C(O)=C1O [VC, Vitamin C] | – | – | – | 25.3 μA |
